Assay results published in patent publication US10945932B2, “Prebiotic oral care compositions containing carboxylic acids” (COLGATE-PALMOLIVE COMPANY, priority 2013, dated 2021).

Assays:
Experiment in all cases: Biofilm growth assay in BHI, crystal violet
Format in all cases: cell-based
Streptococcus mitis = details: S mitis
Method: (§1) Late exponential growth phase liquid cultures were prepared by transferring the respective bacterium from blood agar plates to BHI and overnight incubation at 37° C. in an anaerobic atmosphere for A. viscosus, V. parvula, F. nucleatum, P. gingivalis, P. intermedia, T. forsythia, A. naeslundii, and C. sputigena, and in a 5% CO2 environment for S. salivarius, S. sanguinis, S. mitis, A. actinomycetemcomitans, S. mutans, and S. gordonii. […] Additionally, for each bacterium tested, a background control, to correct for background staining, was added. This background control contained the bacterium tested and 0.03 weight % chlorhexidine, as an antiseptic. Plates were incubated as previously described. After 48 hrs the supernatant was removed from the wells of the plates. The wells were washed twice with 1×100 μL/PBS (phosphate buffered saline), fixed for 20 minutes with 96% vol. ethanol (96% vol. solution in water) and the biofilm retained at the bottom of the wells was stained with 1 weight % crystal violet (1 weight % solution in water). […] Quantification of the stained biofilm was performed by measuring the absorbance at 630 nm using a Multiskan Ascent microplate reader (Thermo Scientific).

Streptococcus sanguinis = details: S sanguinis
Method: as §1

Capnocytophaga sputigena = details: C sputigena
Method: as §1

Actinomyces naeslundii = details: A naeslundii
Method: as §1

Actinomyces viscosus = details: A viscosus
Method: as §1

Prevotella intermedia = details: P intermedia
Method: as §1

Fusobacterium nucleatum = details: F nucleatum
Method: as §1

Veillonella parvula = details: V parvula
Method: as §1

[1] = system: Aggregatibacter actinomycetemcomitans; details: A actinomycetemcomitans
Method: as §1

Streptococcus salivarius = details: S salivarius
Method: as §1

SMILES | biofilm growth, OD at 630 nm (crystal violet) at 48 hrs divided by OD of control (control = 1) (Streptococcus mitis; 5 μmol/ml) | biofilm growth, OD at 630 nm (crystal violet) at 48 hrs divided by OD of control (control = 1) (Streptococcus mitis; 10 μmol/ml) | biofilm growth, OD at 630 nm (crystal violet) at 48 hrs divided by OD of control (control = 1) (Streptococcus mitis; 20 μmol/ml) | biofilm growth, OD at 630 nm (crystal violet) at 48 hrs divided by OD of control (control = 1) (Streptococcus mitis; 25 μmol/ml) | biofilm growth, OD at 630 nm (crystal violet) at 48 hrs divided by OD of control (control = 1) (Streptococcus sanguinis; 5 μmol/ml) | biofilm growth, OD at 630 nm (crystal violet) at 48 hrs divided by OD of control (control = 1) (Streptococcus sanguinis; 10 μmol/ml) | biofilm growth, OD at 630 nm (crystal violet) at 48 hrs divided by OD of control (control = 1) (Streptococcus sanguinis; 20 μmol/ml) | biofilm growth, OD at 630 nm (crystal violet) at 48 hrs divided by OD of control (control = 1) (Streptococcus sanguinis; 25 μmol/ml) | biofilm growth, OD at 630 nm (crystal violet) at 48 hrs divided by OD of control (control = 1) (Capnocytophaga sputigena; 5 μmol/ml) | biofilm growth, OD at 630 nm (crystal violet) at 48 hrs divided by OD of control (control = 1) (Capnocytophaga sputigena; 10 μmol/ml) | biofilm growth, OD at 630 nm (crystal violet) at 48 hrs divided by OD of control (control = 1) (Capnocytophaga sputigena; 20 μmol/ml) | biofilm growth, OD at 630 nm (crystal violet) at 48 hrs divided by OD of control (control = 1) (Capnocytophaga sputigena; 25 μmol/ml) | biofilm growth, OD at 630 nm (crystal violet) at 48 hrs divided by OD of control (control = 1) (Actinomyces naeslundii; 5 μmol/ml) | biofilm growth, OD at 630 nm (crystal violet) at 48 hrs divided by OD of control (control = 1) (Actinomyces naeslundii; 10 μmol/ml) | biofilm growth, OD at 630 nm (crystal violet) at 48 hrs divided by OD of control (control = 1) (Actinomyces naeslundii; 20 μmol/ml) | biofilm growth, OD at 630 nm (crystal violet) at 48 hrs divided by OD of control (control = 1) (Actinomyces naeslundii; 25 μmol/ml) | biofilm growth, OD at 630 nm (crystal violet) at 48 hrs divided by OD of control (control = 1) (Actinomyces viscosus; 5 μmol/ml) | biofilm growth, OD at 630 nm (crystal violet) at 48 hrs divided by OD of control (control = 1) (Actinomyces viscosus; 10 μmol/ml) | biofilm growth, OD at 630 nm (crystal violet) at 48 hrs divided by OD of control (control = 1) (Actinomyces viscosus; 20 μmol/ml) | biofilm growth, OD at 630 nm (crystal violet) at 48 hrs divided by OD of control (control = 1) (Actinomyces viscosus; 25 μmol/ml) | also measured
N[C@@H](CC(=O)O)C(=O)O [L-aspartic acid] | 1.5188 | 1.6156 | 1.5402 | 1.7351 | 1.5035 | 1.7477 | 2.0414 | 2.0560 | 0.9508 | 0.9546 | 0.9747 | 0.9785 | 1.1735 | 1.2585 | 1.2309 | 1.1175 | 0.5576 | 0.5650 | 0.5834 | 0.5289 | biofilm growth, OD at 630 nm (crystal violet) at 48 hrs divided by OD of control (control = 1) (Prevotella intermedia; 5 μmol/ml): 1.4322; biofilm growth, OD at 630 nm (crystal violet) at 48 hrs divided by OD of control (control = 1) (Prevotella intermedia; 10 μmol/ml): 1.6018; biofilm growth, OD at 630 nm (crystal violet) at 48 hrs divided by OD of control (control = 1) (Prevotella intermedia; 20 μmol/ml): 1.6295; biofilm growth, OD at 630 nm (crystal violet) at 48 hrs divided by OD of control (control = 1) (Prevotella intermedia; 25 μmol/ml): 1.5442; biofilm growth, OD at 630 nm (crystal violet) at 48 hrs divided by OD of control (control = 1) (Fusobacterium nucleatum; 5 μmol/ml): 1.2145; biofilm growth, OD at 630 nm (crystal violet) at 48 hrs divided by OD of control (control = 1) (Fusobacterium nucleatum; 10 μmol/ml): 0.9710; biofilm growth, OD at 630 nm (crystal violet) at 48 hrs divided by OD of control (control = 1) (Fusobacterium nucleatum; 20 μmol/ml): 0.9621; biofilm growth, OD at 630 nm (crystal violet) at 48 hrs divided by OD of control (control = 1) (Fusobacterium nucleatum; 25 μmol/ml): 0.8549; biofilm growth, OD at 630 nm (crystal violet) at 48 hrs divided by OD of control (control = 1) (Veillonella parvula; 5 μmol/ml): 1.1641; biofilm growth, OD at 630 nm (crystal violet) at 48 hrs divided by OD of control (control = 1) (Veillonella parvula; 10 μmol/ml): 1.2799; biofilm growth, OD at 630 nm (crystal violet) at 48 hrs divided by OD of control (control = 1) (Veillonella parvula; 20 μmol/ml): 1.5344; biofilm growth, OD at 630 nm (crystal violet) at 48 hrs divided by OD of control (control = 1) (Veillonella parvula; 25 μmol/ml): 1.6960; biofilm growth, OD at 630 nm (crystal violet) at 48 hrs divided by OD of control (control = 1) ([1]; 5 μmol/ml): 0.6182; biofilm growth, OD at 630 nm (crystal violet) at 48 hrs divided by OD of control (control = 1) ([1]; 10 μmol/ml): 0.5044; biofilm growth, OD at 630 nm (crystal violet) at 48 hrs divided by OD of control (control = 1) ([1]; 20 μmol/ml): 0.4857; biofilm growth, OD at 630 nm (crystal violet) at 48 hrs divided by OD of control (control = 1) ([1]; 25 μmol/ml): 0.5553; biofilm growth, OD at 630 nm (crystal violet) at 48 hrs divided by OD of control (control = 1) (Streptococcus salivarius; 5 μmol/ml): 1.4152; biofilm growth, OD at 630 nm (crystal violet) at 48 hrs divided by OD of control (control = 1) (Streptococcus salivarius; 10 μmol/ml): 1.9207; biofilm growth, OD at 630 nm (crystal violet) at 48 hrs divided by OD of control (control = 1) (Streptococcus salivarius; 20 μmol/ml): 2.4799; biofilm growth, OD at 630 nm (crystal violet) at 48 hrs divided by OD of control (control = 1) (Streptococcus salivarius; 25 μmol/ml): 3.0682
O=C(O)CCC(=O)O [Succinic acid, succinic acid] | 0.1603 | 0.1188 | 0.0851 | 0.1085 | 3.3955 | 2.9778 | 1.7748 | 1.9952 | 2.0880 | 2.1577 | 0.2256 | 0.3202 | 0.7746 | 0.2490 | 0.0240 | 0.0182 | 0.3969 | 0.3190 | 0.0498 | 0.0622 | biofilm growth, OD at 630 nm (crystal violet) at 48 hrs divided by OD of control (control = 1) (Prevotella intermedia; 5 μmol/ml): 0.8344; biofilm growth, OD at 630 nm (crystal violet) at 48 hrs divided by OD of control (control = 1) (Prevotella intermedia; 10 μmol/ml): 0.7023; biofilm growth, OD at 630 nm (crystal violet) at 48 hrs divided by OD of control (control = 1) (Prevotella intermedia; 20 μmol/ml): 0.0589; biofilm growth, OD at 630 nm (crystal violet) at 48 hrs divided by OD of control (control = 1) (Prevotella intermedia; 25 μmol/ml): 0.1442; biofilm growth, OD at 630 nm (crystal violet) at 48 hrs divided by OD of control (control = 1) (Fusobacterium nucleatum; 5 μmol/ml): 2.7146; biofilm growth, OD at 630 nm (crystal violet) at 48 hrs divided by OD of control (control = 1) (Fusobacterium nucleatum; 10 μmol/ml): 5.3887; biofilm growth, OD at 630 nm (crystal violet) at 48 hrs divided by OD of control (control = 1) (Fusobacterium nucleatum; 20 μmol/ml): 0.5404; biofilm growth, OD at 630 nm (crystal violet) at 48 hrs divided by OD of control (control = 1) (Fusobacterium nucleatum; 25 μmol/ml): 0.1087; biofilm growth, OD at 630 nm (crystal violet) at 48 hrs divided by OD of control (control = 1) (Veillonella parvula; 5 μmol/ml): 0.9059; biofilm growth, OD at 630 nm (crystal violet) at 48 hrs divided by OD of control (control = 1) (Veillonella parvula; 10 μmol/ml): 1.0118; biofilm growth, OD at 630 nm (crystal violet) at 48 hrs divided by OD of control (control = 1) (Veillonella parvula; 20 μmol/ml): 1.1681; biofilm growth, OD at 630 nm (crystal violet) at 48 hrs divided by OD of control (control = 1) (Veillonella parvula; 25 μmol/ml): 1.4334; biofilm growth, OD at 630 nm (crystal violet) at 48 hrs divided by OD of control (control = 1) ([1]; 5 μmol/ml): 0.6941; biofilm growth, OD at 630 nm (crystal violet) at 48 hrs divided by OD of control (control = 1) ([1]; 10 μmol/ml): 0.5093; biofilm growth, OD at 630 nm (crystal violet) at 48 hrs divided by OD of control (control = 1) ([1]; 20 μmol/ml): 0.0593; biofilm growth, OD at 630 nm (crystal violet) at 48 hrs divided by OD of control (control = 1) ([1]; 25 μmol/ml): 0.0581; biofilm growth, OD at 630 nm (crystal violet) at 48 hrs divided by OD of control (control = 1) (Streptococcus salivarius; 5 μmol/ml): 3.7553; biofilm growth, OD at 630 nm (crystal violet) at 48 hrs divided by OD of control (control = 1) (Streptococcus salivarius; 10 μmol/ml): 1.2358; biofilm growth, OD at 630 nm (crystal violet) at 48 hrs divided by OD of control (control = 1) (Streptococcus salivarius; 20 μmol/ml): 0.6125; biofilm growth, OD at 630 nm (crystal violet) at 48 hrs divided by OD of control (control = 1) (Streptococcus salivarius; 25 μmol/ml): 1.7869
